Experiments:
[1] = system: SKOV3 cells; conditions: 10 μM polymer, 72 h; FITC-annexin V, flow cytometry
[2] = system: 3T3 fibroblasts; conditions: MTS; after 120 h of treatment
[3] = system: mitochondria of granta-519 tumor cells; experiment: Cytochrome C release from mitochondria of tumor cells; assay type: cell-based; conditions: 10 μM peptide; in comparison to a positive 1% Triton X-100 control; Figure S4
[4] = system: caspase 3/7 activity in SKOV3 cells; conditions: 0-10 μM polymer, 72 h
[5] = system: SKOV3 human ovarian cancer cells; conditions: all polymer concentrations (0 to 10 μM), 96 h, MTS

Substance | cells staining positive for annexin V [1] [%] | BIM-mediated cell death in 3T3 fibroblasts [2] | cytochrome C release [3] [%] | change in caspase 3/7 activity relative to untreated cultures [4] | cell viability [5]
poly[(DEAEMA)-co-(BMA)]-b-[(PEGMA300)-c-(MaCath-BIM)] [PolCathBIM] | 87 | no BIM-mediated cell death was observed | – | – | –
FLAhxMRPEI-WIAQELRRIGvDEFNAY [FLAhxBIM] | – | – | > 90 | – | –
poly[(DEAEMA)-co-(BMA)]-b-[(PEGMA300)-c-(MaCathScrBIM)] [PolCathScrBIM] | 15 | – | – | no change | greater than 90%

From publication PMC5823688 (Molecular pharmaceutics, 2017)
